Experimental data: the NIST ThermoML archive (doi:10.1021/je060271a)

Settings: 303.14 K, Liquid, Vibrating tube method

CCCCCCC(=O)OCC(COC(=O)CCCCCC)(COC(=O)CCCCCC)COC(=O)CCCCCC [pentaerythritol tetraheptanoate]
Settings | mass density [kg/m3]
3038.7 kPa | 972.7
3058.7 kPa | 972.6
3082.4 kPa | 972.7
3102.9 kPa | 972.7
3122.8 kPa | 972.6
3144 kPa | 972.7
3168.8 kPa | 972.6
3190.1 kPa | 972.7
3211.6 kPa | 972.8
3237.6 kPa | 972.8
3258.9 kPa | 972.7
3281.4 kPa | 972.8
3307.8 kPa | 972.7
3330.1 kPa | 972.8
3352.7 kPa | 972.9
3380 kPa | 972.9
3403.4 kPa | 972.9
3426.8 kPa | 973
3450.4 kPa | 972.9
3479.2 kPa | 972.9
3502.9 kPa | 972.9
3527.3 kPa | 972.9
3557 kPa | 973
3581.9 kPa | 973.1
3607.2 kPa | 972.9
3632.9 kPa | 973
3663.7 kPa | 973
3689.2 kPa | 973.1
3719.9 kPa | 973.1
3746.2 kPa | 973
3772.9 kPa | 973.1
3800.2 kPa | 973.1
3832.6 kPa | 973.2
3860.2 kPa | 973.1
3888.8 kPa | 973.1
3922.9 kPa | 973.2
3951.5 kPa | 973.3
3980.6 kPa | 973.3
4009.8 kPa | 973.2
4044.8 kPa | 973.2
4074.3 kPa | 973.3
4103.9 kPa | 973.4
4139.9 kPa | 973.4
4170.1 kPa | 973.4
4200.4 kPa | 973.3
4233.1 kPa | 973.3
4239.8 kPa | 973.3
4241.6 kPa | 973.4
4243.3 kPa | 973.4
4244.7 kPa | 973.5
4245.2 kPa | 973.4
4245.9 kPa | 973.5
4246.6 kPa | 973.4
4246.8 kPa | 973.5
4247.1 kPa | 973.4
4247.3 kPa | 973.4
4247.5 kPa | 973.5
4249.4 kPa | 973.4
4257.2 kPa | 973.5
4271.5 kPa | 973.3
4283.5 kPa | 973.5
4296.1 kPa | 973.4
4311.4 kPa | 973.5
4322.4 kPa | 973.6
4342.7 kPa | 973.4
4361.4 kPa | 973.4
4372.3 kPa | 973.5
4382.1 kPa | 973.5
4393.9 kPa | 973.6
4403.8 kPa | 973.4
4413.6 kPa | 973.4
4425.4 kPa | 973.5
4435.5 kPa | 973.5
4445.2 kPa | 973.5
4455.2 kPa | 973.5
4467.5 kPa | 973.6
4476.8 kPa | 973.6
4487.4 kPa | 973.6
4499.3 kPa | 973.5
4509.6 kPa | 973.5
4519.6 kPa | 973.6
4529.8 kPa | 973.5
4541.2 kPa | 973.6
4551.3 kPa | 973.5
4563.6 kPa | 973.6
4573.1 kPa | 973.6
4582.4 kPa | 973.6
4592.3 kPa | 973.7
4605.6 kPa | 973.6
4631.8 kPa | 973.7
4653.8 kPa | 973.6
4676.1 kPa | 973.5
4703.4 kPa | 973.7
4724.4 kPa | 973.8
4743.1 kPa | 973.7
4764.9 kPa | 973.7
4783.4 kPa | 973.6
4801.9 kPa | 973.8
4820.6 kPa | 973.8
4843.5 kPa | 973.7
4862.8 kPa | 973.7
4882.7 kPa | 973.8
4901.8 kPa | 973.6
4925 kPa | 973.8
4944 kPa | 973.8
4964.4 kPa | 973.9
4984.3 kPa | 974
5008.5 kPa | 973.8
5029 kPa | 973.9
5050.1 kPa | 974
5075 kPa | 973.9
5095.7 kPa | 973.9
5116.9 kPa | 974.1
5138.3 kPa | 974
5164.1 kPa | 974
5185.5 kPa | 974.1
5207.3 kPa | 974
5229.7 kPa | 974.1
5256.1 kPa | 974.1
5277.9 kPa | 974
5304.9 kPa | 974
5328.1 kPa | 974.1
5350.7 kPa | 974.1
5374.3 kPa | 974.1
5402.1 kPa | 974.2
5425.6 kPa | 974.1
5450.7 kPa | 974.3
5475.8 kPa | 974.1
5504.5 kPa | 974.2
5528.9 kPa | 974.2
5554 kPa | 974.3
5583.9 kPa | 974.3
5609.1 kPa | 974.3
5634.4 kPa | 974.3
5665 kPa | 974.3
5690.9 kPa | 974.2
5717.2 kPa | 974.3
5749 kPa | 974.4
5776.5 kPa | 974.3
5804.6 kPa | 974.3
5832 kPa | 974.4
5860 kPa | 974.4
5888.5 kPa | 974.4
5922.7 kPa | 974.5
5951.6 kPa | 974.3
5980.6 kPa | 974.5
6015.7 kPa | 974.6
6045.3 kPa | 974.5
6075.7 kPa | 974.4
6106.1 kPa | 974.5
6142.6 kPa | 974.5
6174.1 kPa | 974.6
6207 kPa | 974.5
6238.7 kPa | 974.6
6270.8 kPa | 974.6
6309.5 kPa | 974.6
6342.4 kPa | 974.7
6375.9 kPa | 974.7
6416.1 kPa | 974.8
6447.8 kPa | 974.8
6476.3 kPa | 974.7
6510.3 kPa | 974.7
6539.5 kPa | 974.8
6568.7 kPa | 974.8
6598.1 kPa | 974.9
6633.7 kPa | 974.8
6664.4 kPa | 974.9
6695.2 kPa | 974.8
6725.8 kPa | 974.8
6762.4 kPa | 974.9
6793.3 kPa | 975
6825.6 kPa | 975
6857.2 kPa | 975
6895.7 kPa | 975
6928 kPa | 975
6961.5 kPa | 975
7001.6 kPa | 975.1
7035.6 kPa | 975.2
7070.4 kPa | 975.2
7104.5 kPa | 975.1
7139.2 kPa | 975.2
7181.2 kPa | 975.2
7216.8 kPa | 975.2
7253.9 kPa | 975.3
7291.4 kPa | 975.3
7336.6 kPa | 975.2
7375.1 kPa | 975.4
7414.5 kPa | 975.3
7451.6 kPa | 975.3
7469.5 kPa | 975.4
7494.9 kPa | 975.4
7522.2 kPa | 975.3
7549.5 kPa | 975.4
7582.3 kPa | 975.4
7609.7 kPa | 975.5
7637.3 kPa | 975.6
7671.1 kPa | 975.5
7698.9 kPa | 975.6
7728.1 kPa | 975.5
7757.4 kPa | 975.5
7793.5 kPa | 975.6
7823.2 kPa | 975.6
7858.2 kPa | 975.7
7882.7 kPa | 975.7
7904.3 kPa | 975.7
7925.9 kPa | 975.6
7946.9 kPa | 975.6
7972.8 kPa | 975.7
7994 kPa | 975.6
8016.3 kPa | 975.8
8042.7 kPa | 975.7
8064.3 kPa | 975.8
8087 kPa | 975.8
8113.3 kPa | 975.8
8135.7 kPa | 975.8
8158.3 kPa | 975.8
8181.6 kPa | 975.8
8209 kPa | 975.8
8232.1 kPa | 975.9
8255.4 kPa | 976
8283 kPa | 975.9
8305.8 kPa | 975.8
8328.7 kPa | 975.9
